# Results: patent US8211886B2, “Thiadiazinone derivatives” (Merck Patent Gesellschaft mit beschrankter Haftung, priority 2007, dated 2012)
# Target: T1, Met kinase (Homo sapiens, UniProt P08581)
# T1 construct: 6His (N); purchased Upstate 14-526; host or cells: Sf21 insect cells (S. frugiperda), baculovirus
# Assay: Met kinase inhibition (enzyme assay), flashplate method
# Type: biochemical
# Conditions: 33P-ATP, substrate pAGLT, 3 hrs at room temperature
# Excerpt: According to the manufacturer's data (Met, active, upstate, catalogue No. 14-526), Met kinase is expressed for the purposes of protein production in insect cells (Sf21; S. frugiperda) and subsequent affinity-chromatographic purification as “N-terminal 6His-tagged” recombinant human protein in a baculovirus expression vector.
# Flashplate Method (Met Kinase)
# The test plates used are 96-well Flashplate^R microtitre plates from Perkin Elmer (Cat. No. SMP200). The components of the kinase reaction described below are pipetted into the assay plate. The Met kinase and the substrate poly Ala-Glu-Lys-Tyr, (pAGLT, 6:2:5:1), are incubated for 3 hrs at room temperature with radioactively labelled ^33P-ATP in the presence and absence of test substances in a total volume of 100 μl. The reaction is terminated using 150 μl of a 60 mM EDTA solution. After incubation for a further 30 min at room temperature, the supernatants are filtered off with suction, and the wells are washed three times with 200 μl of 0.9% NaCl solution each time. The measurement of the bound radioactivity is carried out by means of a scintillation measuring instrument (Topcount NXT, Perkin-Elmer).
# The full value used is the inhibitor-free kinase reaction. This should be approximately in the range 6000-9000 cpm. The pharmacological zero value used is staurosporin in a final concentration of 0.1 mM. The inhibitory values (IC50) are determined using the RS1_MTS program.
# Kinase reaction conditions per well: • 30 μl of assay buffer • 10 μl of substance to be tested in assay buffer with 10% of DMSO • 10 μl of ATP (final concentration 1 μM cold, 0.35 μCi of ^33P-ATP) • 50 μl of Met kinase/substrate mixture in assay buffer; • (10 ng of enzyme/well, 50 ng of pAGLT/well)
# Solutions used: • Assay buffer: • 50 mM HEPES • 3 mM magnesium chloride • 3 μM sodium orthovanadate • 3 mM manganese(II) chloride • 1 mM dithiothreitol (DTT) • pH=7.5 (to be set using sodium hydroxide) • Stop solution: • 60 mM Titriplex III (EDTA) • ^33P-ATP: Perkin-Elmer; • Met kinase: Upstate, Cat. No. 14-526, Stock 1 μg/10 μl; spec. activity 954 U/mg; • Poly-Ala-Glu-Lys-Tyr, 6:2:5:1: Sigma Cat. No. P1152 In-vivo Tests (FIG. 1/1)
# T1 sequence (P08581 25-1390): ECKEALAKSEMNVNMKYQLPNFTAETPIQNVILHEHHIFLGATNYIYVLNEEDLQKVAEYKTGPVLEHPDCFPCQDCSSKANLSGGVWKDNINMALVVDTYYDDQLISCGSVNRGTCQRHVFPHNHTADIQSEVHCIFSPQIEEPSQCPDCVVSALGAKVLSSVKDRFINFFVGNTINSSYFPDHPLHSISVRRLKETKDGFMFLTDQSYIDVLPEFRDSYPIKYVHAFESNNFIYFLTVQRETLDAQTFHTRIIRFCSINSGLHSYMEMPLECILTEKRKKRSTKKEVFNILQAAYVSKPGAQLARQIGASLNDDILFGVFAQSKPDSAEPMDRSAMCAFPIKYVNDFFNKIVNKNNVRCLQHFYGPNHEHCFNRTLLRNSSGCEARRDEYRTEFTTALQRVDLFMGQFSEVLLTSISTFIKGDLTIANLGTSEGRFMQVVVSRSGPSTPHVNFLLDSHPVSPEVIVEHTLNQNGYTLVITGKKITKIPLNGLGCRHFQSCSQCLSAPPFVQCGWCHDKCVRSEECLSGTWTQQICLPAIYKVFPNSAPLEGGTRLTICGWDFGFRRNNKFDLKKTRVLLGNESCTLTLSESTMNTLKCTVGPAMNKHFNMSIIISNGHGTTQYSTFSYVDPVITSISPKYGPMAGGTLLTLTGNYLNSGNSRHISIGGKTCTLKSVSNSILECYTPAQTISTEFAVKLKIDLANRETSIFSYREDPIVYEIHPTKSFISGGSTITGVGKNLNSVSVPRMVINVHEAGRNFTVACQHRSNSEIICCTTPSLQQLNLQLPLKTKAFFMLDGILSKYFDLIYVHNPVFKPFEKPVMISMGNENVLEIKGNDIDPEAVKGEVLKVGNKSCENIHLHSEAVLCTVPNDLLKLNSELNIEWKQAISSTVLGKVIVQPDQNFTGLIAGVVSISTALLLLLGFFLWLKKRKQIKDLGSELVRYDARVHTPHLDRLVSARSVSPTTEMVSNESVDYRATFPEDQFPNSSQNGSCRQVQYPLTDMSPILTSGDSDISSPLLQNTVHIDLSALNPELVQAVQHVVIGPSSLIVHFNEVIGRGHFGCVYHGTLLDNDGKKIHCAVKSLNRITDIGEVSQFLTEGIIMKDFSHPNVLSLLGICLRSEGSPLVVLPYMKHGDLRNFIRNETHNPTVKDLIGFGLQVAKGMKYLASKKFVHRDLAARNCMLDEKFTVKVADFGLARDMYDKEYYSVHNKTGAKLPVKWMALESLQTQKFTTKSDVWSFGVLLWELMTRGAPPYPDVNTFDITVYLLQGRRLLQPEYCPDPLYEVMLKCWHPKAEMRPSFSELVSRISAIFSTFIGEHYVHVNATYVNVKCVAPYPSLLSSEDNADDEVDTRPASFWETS
row,Compound,IC50 [nM]
1,"Cc1cnc(-c2cccc(CN3N=C(c4nccs4)CSC3=O)c2)nc1 [Compound A1, 3-[3-(5-methylpyrimidin-2-yl)benzyl]-5-thiazol-2-yl-3,6-dihydro-1,3,4-thiadiazin-2-one]",10 to 1000
2,"CN(C)/C=N/c1cnc(-c2cccc(CN3N=C(c4nccs4)CSC3=O)c2)nc1 [Compound A2, N,N-Dimethyl-N′-{2-[3-(2-oxo-5-thiazol-2-yl-6H-1,3,4-thiadiazin-3-ylmethyl)phenyl]pyrimidin-5-yl}formamidine]",10 to 1000
3,"Cc1nc(-c2cccc(CN3N=C(c4nccs4)CSC3=O)c2)no1 [Compound A3, 3-[3-(5-Methyl-1,2,4-oxadiazol-3-yl)benzyl]-5-thiazol-2-yl-3,6-dihydro-1,3,4-thiadiazin-2-one]",1000 to 10000
4,"Nc1cnc(-c2cccc(CN3N=C(c4cc(F)cc(F)c4)CSC3=O)c2)nc1 [Compound A4, 3-[3-(5-aminopyrimidin-2-yl)benzyl]-5-(3,5-difluorophenyl)-3,6-dihydro-1,3,4-thiadiazin-2-one]",10 to 1000
5,"COc1ccc(C2=NN(Cc3cccc(-c4ncc(N)cn4)c3)C(=O)SC2)cc1OC [Compound A5, 3-[3-(5-Aminopyrimidin-2-yl)benzyl]-5-(3,4-dimethoxyphenyl)-3,6-dihydro-1,3,4-thiadiazin-2-one]",10 to 1000

# Now from value to compound:
row,IC50 [nM],Compound
1,10 to 1000,"N#Cc1ccc(C2=NN(Cc3cccc(-c4ncc(N)cn4)c3)C(=O)SC2)cc1 [Compound A6, 4-{3-[3-(5-Aminopyrimidin-2-yl)benzyl]-2-oxo-3,6-dihydro-2H-1,3,4-thiadiazin-5-yl}benzonitrile]"
2,10 to 1000,"CN(C)CCCOc1cnc(-c2cccc(CN3N=C(c4nccs4)CSC3=O)c2)nc1 [Compound A7, 3-{3-[5-(3-Dimethylaminopropoxy)pyrimidin-2-yl]benzyl}-5-thiazol-2-yl-3,6-dihydro-1,3,4-thiadiazin-2-one]"
3,10 to 1000,"CN(C)CCCOc1cnc(-c2cccc(CN3N=C(c4cc(F)cc(F)c4)CSC3=O)c2)nc1 [Compound A8, 5-(3,5-Difluorophenyl)-3-{3-[5-(3-dimethylamino-propoxy)pyrimidin-2-yl]benzyl}-3,6-dihydro-1,3,4-thiadiazin-2-one]"
4,10 to 1000,"CN(C)CCCOc1cnc(-c2cccc(CN3N=C(c4ccc(C#N)cc4)CSC3=O)c2)nc1 [Compound A9, 4-(3-{3-[5-(3-Dimethylaminopropoxy)pyrimidin-2-yl]-benzyl}-2-oxo-3,6-dihydro-2H-1,3,4-thiadiazin-5-yl)-benzonitrile]"
5,10 to 1000,"Nc1cnc(-c2cccc(CN3N=C(c4nccs4)CSC3=O)c2)nc1 [Compound A10, 3-[3-(5-Aminopyrimidin-2-yl)benzyl]-5-thiazol-2-yl-3,6-dihydro-1,3,4-thiadiazin-2-one]"
